Results reported in patent publication US20240216438A1, “COMPOSITION CONTAINING FUNCTION-REINFORCED STEM CELL FOR PREVENTION OR TREATMENT OF ATOPIC DERMATITIS” (SCM LIFESCIENCE CO., LTD., priority 2021, published 2024).

test system: mesenchymal stem cells; assay: qRT-PCR of IDO and TSG6 expression in mesenchymal stem cells treated with priming candidates; format: cell-based; details: compared to untreated control group 0; Table 1 groups, 24 hours
Procedure: In a 37° C. and 5% CO2 incubator, mesenchymal stem cells in a storage state (LN2 tank storage) were thawed and cultured, and at this time, the cells were cultured in a medium (DMEM, alpha-MEM) containing 10% FBS or 4% hPL until proliferated to a cell confluence of about 80%. The cultured mesenchymal stem cells were seeded in a 100 mm dish, and treated with candidate substances for reinforcing the functions of the mesenchymal stem cells for 24 hours, and then the concentrations of primary candidate substances for reinforcing the functions were set.
TNF-α and IFN-γIFN-α were selected as the primary candidate substances, and in order to confirm the lowest effective concentration capable of increasing the expression of TNFα-stimulated gene-6 (TSG6) and indoleamine 2,3-dioxygenase (IDO) to confirm the reinforced functions, the stem cells were treated with 5, 10, and 20 ng/ml of TNF-α, 5, 10, and 20 ng/ml of IFN-γ, and 10, 20, and 40 ng/ml of IFN-α, respectively, and changes in expression of TSG6 and IDO were confirmed.
The IDO was known as an immunomodulatory factor that inhibited the proliferation of immune cells such as T cells by converting tryptophan, which was essential for T cell proliferation, into kynurenine, and the TSG6 was known as an anti-inflammatory regulator secreted by mesenchymal stem cells. After culturing the stem cells, total RNA was isolated using TRIzol (Invitrogen), and cDNA was synthesized from total RNA using PrimeScript™ RT reagent Kit with gDNA Eraser (TaKaRa), and qRT-PCR was performed. The results of TSG6 and IDO according to the concentration of each candidate substance were illustrated in FIGS. 1, 2 and 3.
Through Example 1, candidate substances and concentration combinations thereof selected to search for more functionally reinforced compositions based on the candidate substances and the lowest effective concentrations confirmed to induce the reinforced functions of stem cells were set as shown in Table 1. Mesenchymal stem cells were treated with the candidate combinations described in Table 1 below for 24 hours, and the stem cells were cultured as in Example 1, and then total RNA was isolated using TRIzol (Invitrogen). Thereafter, qRT-PCR was performed by synthesizing cDNA from total RNA using the PrimeScript™ RT reagent Kit with gDNA Eraser (TaKaRa).
Vitamins were known to improve the proliferative ability of stem cells and maintain the stemness of stem cells when added during a stem cell culture process. Accordingly, various vitamins were treated in the stem cell culture process, and experiments were performed to confirm whether or not vitamins could achieve anti-inflammatory and immune function reinforcing effects of stem cells. Specifically, the stem cells were treated with various types of vitamins shown in Table 2 according to the method described in Example 1, and the results of confirming changes in expression of IDO and TSG6 according to treatment with each candidate substance were illustrated in FIG. 5.

Substance	expression of IDO and TSG6
IFN-γ: priming candidate substance; Table 1 group 2, 10 ng/ml	increased expression
TNF-α	increased expression
IFN-α	increased expression

same assay, conditions: single substance, 24 hours treatment, qRT-PCR

Substance	lowest effective concentrations capable of inducing significantly increased expression of both TSG6 and IDO
IFN-γ: priming candidate substance; Table 1 group 2, 10 ng/ml	10 ng/mL
TNF-α	10 ng/mL
IFN-α	20 ng/mL
